Experimental data: PMC13188182, “Role of DZ2002 in reducing corneal graft rejection in rats by influencing Th17 activation via inhibition of the PI3K/AKT pathway and downregulation of TRAF1” (Open Life Sciences, 2026)

Target: T1, TRAF1
T1 construct: TRAF1 protein amine-coupled to carboxylated SPR chip
Test: surface plasmon resonance, TRAF1 immobilized
Type: binding
Details: PBST running buffer; analyte 0-500 μM; Fc2-Fc1 double-referenced

Kd: 246 µM
Compound: N[C@@H](CCS)C(=O)O [L-homocysteine]
